Experimental data taken from ChEMBL document CHEMBL3351789, “Triazolopyridines as selective JAK1 inhibitors: from hit identification to GLPG0634” (J Med Chem, 2014).
Values after ≈ are worked out from the molar mass of the structure shown.

Tested on: not listed separately
Test: Kinetic solubility of the compound at pH 7.4
Details: buffer; call rule not given here

| Structure (SMILES) | solubility kinetic [mg/mL] |
| --- | --- |
| O=C(NCCc1ccn(-c2ccccc2)n1)c1ccc(-c2cccc3nc(NC(=O)C4CC4)nn23)cc1 | 0.004 (≈ 8.14 µM) |
| N#CCc1ccccc1NCc1ccc(-c2cccc3nc(NC(=O)C4CC4)nn23)cc1 | 0.0094 (≈ 22.2 µM) |
| O=C(Nc1nc2cccc(-c3ccc(CNC4CCS(=O)(=O)C4)cc3)n2n1)C1CC1 (stereo not given) | > 0.085 |
| O=C(Nc1nc2cccc(-c3ccc(CNC(=O)C(F)(F)F)cc3)n2n1)C1CC1 | > 0.08 |
| O=C(Nc1nc2cccc(-c3ccc(Cc4ccc(O)c(CO)c4)cc3)n2n1)C1CC1 | 0.028 (≈ 67.6 µM) |

Organism: Homo sapiens
Test: Selectivity index, ratio of IC50 for human recombinant JAK2 to IC50 for human recombinant JAK1
Details: not given

| Structure (SMILES) | Ratio IC50 |
| --- | --- |
| O=C(NCCc1ccn(-c2ccccc2)n1)c1ccc(-c2cccc3nc(NC(=O)C4CC4)nn23)cc1 | 5.3 |
| CCOc1ccc(-c2cncc3nc(NC(=O)C4CC4)nn23)cc1 | 1 |
| COc1ccc(-c2cccc3nc(N)nn23)cc1 | 0.6 |
| CCOc1ccc(-c2c(OC)ccc3nc(NC(=O)C4CC4)nn23)cc1 | > 1 |
| CCOc1ccc(-c2nccc3nc(NC(=O)C4CC4)nn23)cc1 | 1.5 |
| N#CCc1ccccc1NCc1ccc(-c2cccc3nc(NC(=O)C4CC4)nn23)cc1 | 11.4 |
| CCC(=O)Nc1nc2cccc(-c3ccc(OC)cc3)n2n1 | 0.5 |
| COc1ccc(-c2cccc3nc(NC(=O)C4CC4)nn23)cn1 | 1.5 |
| COCc1cccc(-c2cccc3nc(NC(=O)C4CC4)nn23)c1 | 0.9 |
| N#Cc1ccc(OCC2CN(c3ccc(-c4cccc5nc(NC(=O)C6CC6)nn45)cc3)C2)cc1 | 7.5 |
| O=C(Nc1nc2cccc(-c3cn[nH]c3)n2n1)C1CC1 | 1.1 |
| O=C(Nc1nc2cccc(-c3ccc(CNC4CCS(=O)(=O)C4)cc3)n2n1)C1CC1 (stereo not given) | 2.1 |
| O=C(Nc1nc2cccc(-c3cccc(OCc4ccccc4)c3)n2n1)C1CC1 | 1 |
| COc1ccc(-c2cccc3nc(Nc4ccc(NC(C)=O)cc4)nn23)cc1 | 0.9 |
| O=C(Nc1nc2cccc(-c3ccc(CNC(=O)C(F)(F)F)cc3)n2n1)C1CC1 | 2.6 |
| CNC(=O)Nc1nc2cccc(-c3ccc(OC)cc3)n2n1 | 0.7 |
| O=C(Nc1nc2cccc(-c3ccccc3)n2n1)C1CC1 | 2.3 |
| COc1ncc(-c2cccc3nc(NC(=O)C4CC4)nn23)cn1 | 2.1 |
| O=C(Nc1nc2cccc(-c3ccc(Cc4ccc(O)c(CO)c4)cc3)n2n1)C1CC1 | 1.7 |
| COc1ccccc1-c1cccc2nc(NC(=O)C3CC3)nn12 | 1.5 |
| CCOc1ccc(-c2cccc3nc(NC(=O)C4CC4)nn23)cc1 | 2 |
| O=C(Nc1nc2cccc(-c3ccc(Cl)cc3)n2n1)C1CC1 | 3.1 |
| O=C(Nc1nc2cccc(-c3cccc4ncccc34)n2n1)C1CC1 | 0.7 |
| O=C(Nc1nc2cccc(-c3cccc(Cl)c3)n2n1)C1CC1 | 1.1 |
| CCOc1ccc(-c2cccn3nc(NC(=O)C4CC4)nc23)cc1 | 2.2 |

Tested on: not listed separately
Test: Plasma protein binding in rat
Details: not given

| Structure (SMILES) | fraction unbound |
| --- | --- |
| O=C(NCCc1ccn(-c2ccccc2)n1)c1ccc(-c2cccc3nc(NC(=O)C4CC4)nn23)cc1 | 0.01 |
| N#CCc1ccccc1NCc1ccc(-c2cccc3nc(NC(=O)C4CC4)nn23)cc1 | 0.01 |
| O=C(Nc1nc2cccc(-c3ccc(CNC(=O)C(F)(F)F)cc3)n2n1)C1CC1 | 0.17 |
| O=C(Nc1nc2cccc(-c3ccc(NS(=O)(=O)C4CC4)cc3)n2n1)C1CC1 | 0.1 |

Organism: Homo sapiens
Test: Selectivity index, ratio of IC50 for human recombinant TYK2 to IC50 for human recombinant JAK1
Details: not given

| Structure (SMILES) | Ratio IC50 |
| --- | --- |
| O=C(NCCc1ccn(-c2ccccc2)n1)c1ccc(-c2cccc3nc(NC(=O)C4CC4)nn23)cc1 | 66 |
| N#CCc1ccccc1NCc1ccc(-c2cccc3nc(NC(=O)C4CC4)nn23)cc1 | 9 |
| COc1ccc(-c2cccc3nc(NC(=O)C4CC4)nn23)cn1 | 6.2 |
| COCc1cccc(-c2cccc3nc(NC(=O)C4CC4)nn23)c1 | 2.8 |
| O=C(Nc1nc2cccc(-c3cn[nH]c3)n2n1)C1CC1 | > 3 |
| O=C(Nc1nc2cccc(-c3ccc(CNC4CCS(=O)(=O)C4)cc3)n2n1)C1CC1 (stereo not given) | 9.6 |
| O=C(Nc1nc2cccc(-c3cccc(OCc4ccccc4)c3)n2n1)C1CC1 | 18 |
| O=C(Nc1nc2cccc(-c3ccc(CNC(=O)C(F)(F)F)cc3)n2n1)C1CC1 | 6.2 |
| O=C(Nc1nc2cccc(-c3ccccc3)n2n1)C1CC1 | 4.1 |
| COc1ncc(-c2cccc3nc(NC(=O)C4CC4)nn23)cn1 | > 4.1 |
| COc1ccccc1-c1cccc2nc(NC(=O)C3CC3)nn12 | 2.8 |
| O=C(Nc1nc2cccc(-c3ccc(Cl)cc3)n2n1)C1CC1 | 28.2 |
| O=C(Nc1nc2cccc(-c3cccc4ncccc34)n2n1)C1CC1 | > 1.6 |
| O=C(Nc1nc2cccc(-c3cccc(Cl)c3)n2n1)C1CC1 | 2.4 |

Tested on: not listed separately
Test: Metabolic stability in rat liver microsomes assessed as compound remaining after 60 mins
Format: ADME
Details: read-out: Stability

| Structure (SMILES) | remaining at 1 h [%] |
| --- | --- |
| O=C(Nc1nc2cccc(-c3ccc(CNC4CCS(=O)(=O)C4)cc3)n2n1)C1CC1 (stereo not given) | 85 |
| C[C@@H]1CCN(C(=O)CC#N)C[C@@H]1N(C)c1ncnc2[nH]ccc12 [TOFACITINIB] | 27 |
| O=C(Nc1nc2cccc(-c3ccc(CNC(=O)C(F)(F)F)cc3)n2n1)C1CC1 | 80 |

Organism: Homo sapiens
Test: Selectivity index, ratio of IC50 for human recombinant JAK3 to IC50 for human recombinant JAK1
Details: not given

| Structure (SMILES) | Ratio IC50 |
| --- | --- |
| O=C(NCCc1ccn(-c2ccccc2)n1)c1ccc(-c2cccc3nc(NC(=O)C4CC4)nn23)cc1 | 21 |
| N#CCc1ccccc1NCc1ccc(-c2cccc3nc(NC(=O)C4CC4)nn23)cc1 | 26 |
| COc1ccc(-c2cccc3nc(NC(=O)C4CC4)nn23)cn1 | 4.4 |
| COCc1cccc(-c2cccc3nc(NC(=O)C4CC4)nn23)c1 | 3.8 |
| O=C(Nc1nc2cccc(-c3cn[nH]c3)n2n1)C1CC1 | 2.1 |
| O=C(Nc1nc2cccc(-c3ccc(CNC4CCS(=O)(=O)C4)cc3)n2n1)C1CC1 (stereo not given) | 8 |
| O=C(Nc1nc2cccc(-c3cccc(OCc4ccccc4)c3)n2n1)C1CC1 | 3 |
| O=C(Nc1nc2cccc(-c3ccc(CNC(=O)C(F)(F)F)cc3)n2n1)C1CC1 | 9.5 |
| O=C(Nc1nc2cccc(-c3ccccc3)n2n1)C1CC1 | 7.1 |
| COc1ncc(-c2cccc3nc(NC(=O)C4CC4)nn23)cn1 | > 4.1 |
| COc1ccccc1-c1cccc2nc(NC(=O)C3CC3)nn12 | 2 |
| O=C(Nc1nc2cccc(-c3ccc(Cl)cc3)n2n1)C1CC1 | 7.4 |
| O=C(Nc1nc2cccc(-c3cccc4ncccc34)n2n1)C1CC1 | 1.5 |
| O=C(Nc1nc2cccc(-c3cccc(Cl)c3)n2n1)C1CC1 | 6.7 |

Target: T1, Tyrosine-protein kinase JAK1 (Homo sapiens, UniProt P23458)
T1 sequence (P23458 whole entry): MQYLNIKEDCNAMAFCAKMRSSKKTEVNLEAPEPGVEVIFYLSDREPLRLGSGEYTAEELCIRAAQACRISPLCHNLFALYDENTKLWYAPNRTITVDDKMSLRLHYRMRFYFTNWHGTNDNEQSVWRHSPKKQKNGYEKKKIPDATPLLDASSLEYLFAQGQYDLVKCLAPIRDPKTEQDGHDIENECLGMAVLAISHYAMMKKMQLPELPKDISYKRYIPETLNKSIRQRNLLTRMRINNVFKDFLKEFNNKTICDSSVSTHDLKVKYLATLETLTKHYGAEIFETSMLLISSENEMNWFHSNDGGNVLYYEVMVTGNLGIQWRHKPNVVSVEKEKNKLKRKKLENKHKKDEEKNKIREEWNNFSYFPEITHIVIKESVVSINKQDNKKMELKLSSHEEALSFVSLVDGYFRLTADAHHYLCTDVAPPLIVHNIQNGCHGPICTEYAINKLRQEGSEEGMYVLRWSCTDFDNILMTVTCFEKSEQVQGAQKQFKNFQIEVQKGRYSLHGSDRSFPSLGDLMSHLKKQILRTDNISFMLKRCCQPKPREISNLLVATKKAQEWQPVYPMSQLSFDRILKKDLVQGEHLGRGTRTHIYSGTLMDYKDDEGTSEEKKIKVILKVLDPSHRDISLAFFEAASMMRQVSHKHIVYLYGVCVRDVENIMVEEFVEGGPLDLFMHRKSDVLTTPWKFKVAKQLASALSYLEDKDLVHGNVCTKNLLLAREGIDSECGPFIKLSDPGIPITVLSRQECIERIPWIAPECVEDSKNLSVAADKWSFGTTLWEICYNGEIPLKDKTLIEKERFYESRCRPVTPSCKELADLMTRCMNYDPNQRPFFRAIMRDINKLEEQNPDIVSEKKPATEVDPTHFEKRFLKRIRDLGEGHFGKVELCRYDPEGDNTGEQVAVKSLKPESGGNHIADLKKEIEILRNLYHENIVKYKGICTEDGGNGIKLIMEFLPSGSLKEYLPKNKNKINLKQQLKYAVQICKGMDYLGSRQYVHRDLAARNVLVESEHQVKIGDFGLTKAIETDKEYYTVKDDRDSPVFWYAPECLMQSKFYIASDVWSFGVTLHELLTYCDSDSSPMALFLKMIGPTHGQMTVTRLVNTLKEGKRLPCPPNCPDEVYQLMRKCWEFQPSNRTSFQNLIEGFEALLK
Test: Inhibition of human recombinant JAK1
Details: not given

| Structure (SMILES) | IC50 |
| --- | --- |
| COc1ccc(-c2cc(C(F)(F)F)cn3nc(NC(=O)C4CC4)nc23)cc1 | Not Active |
| O=C(Nc1nc2nccc(-c3ccccc3)n2n1)C1CC1 | Not Active |

Same assay, conditions: read-out: IC50

| Structure (SMILES) | IC50 [µM] |
| --- | --- |
| O=C(NCCc1ccn(-c2ccccc2)n1)c1ccc(-c2cccc3nc(NC(=O)C4CC4)nn23)cc1 | 0.0006 |
| CCOc1ccc(-c2cncc3nc(NC(=O)C4CC4)nn23)cc1 | 3.1 |
| COc1ccc(-c2cccc3nc(N(C)C(=O)C4CC4)nn23)cc1 | > 10 |
| COc1ccc(-c2cccc3nc(N4CCCCC4)nn23)cc1 | > 10 |
| COc1ccc(-c2cccc3nc(N)nn23)cc1 | 3.06 |
| CCOc1ccc(-c2c(OC)ccc3nc(NC(=O)C4CC4)nn23)cc1 | 3.01 |
| COc1ccc(-c2cccc3nc(N(C)C)nn23)cc1 | > 10 |
| CCOc1ccc(-c2nccc3nc(NC(=O)C4CC4)nn23)cc1 | 0.418 |
| N#CCc1ccccc1NCc1ccc(-c2cccc3nc(NC(=O)C4CC4)nn23)cc1 | 0.0014 |
| CN1CCN(Cc2ccc(-c3cccc4nc(NC(=O)C5CC5)nn34)cc2)CC1 | > 4 |
| CCC(=O)Nc1nc2cccc(-c3ccc(OC)cc3)n2n1 | 1.98 |
| CC(C)(C)OCc1ccccc1-c1cccc2nc(NC(=O)C3CC3)nn12 | > 10 |
| COc1ccc(-c2cccc3nc(NC(=O)C4(C)CC4)nn23)cc1 | > 10 |
| COc1ccc(-c2cccc3nc(NC(=O)C4CC4)nn23)cn1 | 0.547 |
| COc1ccc(-c2cccc3nc(-c4cccnc4)nn23)cc1 | > 10 |
| COCc1cccc(-c2cccc3nc(NC(=O)C4CC4)nn23)c1 | 0.572 |
| N#Cc1ccc(OCC2CN(c3ccc(-c4cccc5nc(NC(=O)C6CC6)nn45)cc3)C2)cc1 | 0.147 |
| O=C(Nc1nc2cccc(-c3cn[nH]c3)n2n1)C1CC1 | 1.35 |
| O=C(Nc1nc2cccc(-c3ccc(CNC4CCS(=O)(=O)C4)cc3)n2n1)C1CC1 (stereo not given) | 0.041 |

| Structure (SMILES) | IC50 [µM] |
| --- | --- |
| COc1ccc(-c2cccc3nc(NC(C)=O)nn23)cc1 | > 4 |
| O=C(Nc1nc2cccc(-c3cccc(OCc4ccccc4)c3)n2n1)C1CC1 | 0.103 |
| COc1ccc(-c2cccc3nc(Nc4ccc(NC(C)=O)cc4)nn23)cc1 | 0.0028 |
| O=C(Nc1nc2cccc(-c3ccc(CNC(=O)C(F)(F)F)cc3)n2n1)C1CC1 | 0.016 |
| CNC(=O)Nc1nc2cccc(-c3ccc(OC)cc3)n2n1 | 0.413 |
| O=C(Nc1nc2cccc(-c3ccccc3)n2n1)C1CC1 | 0.184 |
| COc1ncc(-c2cccc3nc(NC(=O)C4CC4)nn23)cn1 | 0.975 |
| COc1ccc(-c2cccc3nc(NCC4CC4)nn23)cc1 | > 10 |
| O=C(Nc1nc2cccc(-c3ccc(Cc4ccc(O)c(CO)c4)cc3)n2n1)C1CC1 | 0.0083 |
| COc1ccc(-c2cccc3nc(NS(=O)(=O)C4CC4)nn23)cc1 | 5.74 |
| COc1ccc(-c2cccc3nc(NC(=O)C(C)C)nn23)cc1 | > 10 |
| COc1ccccc1-c1cccc2nc(NC(=O)C3CC3)nn12 | 0.371 |
| CCOc1ccc(-c2cccc3nc(NC(=O)C4CC4)nn23)cc1 | 0.027 |
| O=C(Nc1nc2cccc(-c3ccc(Cl)cc3)n2n1)C1CC1 | 0.156 |
| O=C(Nc1nc2cccc(-c3cccc4ncccc34)n2n1)C1CC1 | 2.55 |
| COc1ccc(-c2cccc3nc(NC(=O)c4ccccc4)nn23)cc1 | > 10 |
| O=C(Nc1nc2cccc(-c3cccc(Cl)c3)n2n1)C1CC1 | 0.142 |
| CCOc1ccc(-c2cccn3nc(NC(=O)C4CC4)nc23)cc1 | 0.067 |

Target: Tyrosine-protein kinase JAK2 (Homo sapiens, UniProt O60674)
Sequence (O60674 whole entry): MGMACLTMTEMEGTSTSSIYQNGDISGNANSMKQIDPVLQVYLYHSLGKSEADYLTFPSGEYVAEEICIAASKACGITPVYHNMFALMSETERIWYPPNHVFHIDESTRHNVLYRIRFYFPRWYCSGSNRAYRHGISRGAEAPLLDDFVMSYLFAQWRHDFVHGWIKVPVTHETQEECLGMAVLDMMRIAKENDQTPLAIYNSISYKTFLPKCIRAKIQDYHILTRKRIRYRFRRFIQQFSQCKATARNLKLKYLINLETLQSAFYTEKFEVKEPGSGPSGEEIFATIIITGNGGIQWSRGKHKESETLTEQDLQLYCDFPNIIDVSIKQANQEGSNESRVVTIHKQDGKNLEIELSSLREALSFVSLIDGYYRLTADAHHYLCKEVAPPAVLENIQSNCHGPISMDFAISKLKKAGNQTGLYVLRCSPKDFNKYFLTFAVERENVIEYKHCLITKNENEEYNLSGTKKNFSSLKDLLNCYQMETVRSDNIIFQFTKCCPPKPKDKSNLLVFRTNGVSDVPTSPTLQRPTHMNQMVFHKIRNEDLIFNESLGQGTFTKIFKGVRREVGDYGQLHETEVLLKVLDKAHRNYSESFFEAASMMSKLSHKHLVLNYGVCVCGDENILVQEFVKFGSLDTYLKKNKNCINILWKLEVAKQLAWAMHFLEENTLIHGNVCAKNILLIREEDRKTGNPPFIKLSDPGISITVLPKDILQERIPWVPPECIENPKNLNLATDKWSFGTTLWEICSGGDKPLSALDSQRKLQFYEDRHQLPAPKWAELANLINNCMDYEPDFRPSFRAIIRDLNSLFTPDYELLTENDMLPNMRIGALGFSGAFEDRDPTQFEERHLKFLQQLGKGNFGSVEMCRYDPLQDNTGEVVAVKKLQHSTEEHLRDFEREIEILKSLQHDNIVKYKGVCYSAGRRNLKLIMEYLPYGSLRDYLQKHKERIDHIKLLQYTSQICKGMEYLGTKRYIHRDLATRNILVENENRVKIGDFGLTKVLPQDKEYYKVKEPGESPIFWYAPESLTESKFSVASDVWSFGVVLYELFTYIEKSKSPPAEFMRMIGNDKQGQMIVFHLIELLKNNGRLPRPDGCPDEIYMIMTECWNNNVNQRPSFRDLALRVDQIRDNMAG
Test: Inhibition of JAK2 in human whole blood assessed as inhibition of GM-CSF-induced pSTAT5
Details: not given

| Structure (SMILES) | IC50 [µM] |
| --- | --- |
| Nc1nc2cccc(-c3ccc(CN4CCS(=O)(=O)CC4)cc3)n2n1 | > 100 |
| O=C(Nc1nc2cccc(-c3ccc(CNC4CCS(=O)(=O)C4)cc3)n2n1)C1CC1 (stereo not given) | > 30 |
| O=C(Nc1nc2cccc(-c3ccc(CNC(=O)C(F)(F)F)cc3)n2n1)C1CC1 | > 30 |

Target: T1, Tyrosine-protein kinase JAK1
Test: Inhibition of JAK1 in human whole blood assessed as inhibition of IL-6-induced pSTAT1
Details: not given

| Structure (SMILES) | IC50 [µM] |
| --- | --- |
| Nc1nc2cccc(-c3ccc(CN4CCS(=O)(=O)CC4)cc3)n2n1 | 11.9 |
| O=C(Nc1nc2cccc(-c3ccc(CNC4CCS(=O)(=O)C4)cc3)n2n1)C1CC1 (stereo not given) | 6.15 |
| O=C(Nc1nc2cccc(-c3ccc(CNC(=O)C(F)(F)F)cc3)n2n1)C1CC1 | 4.47 |
